From US20170209544A1, “A PEPTIDE THERAPY TO COUNTERACT INSULIN RESISTANCE AND TYPE 2 DIABETES” (The Regents of the University of California, priority 2014, published 2017) come the findings set out here.

In one assay the test system is peritoneal macrophages. Put plainly: qPCR of inflammatory genes in cultured peritoneal macrophages. It counts as cell-based, mice. As to the method:
Peritoneal macrophages were isolated after thioglycollate (3% solution in water) stimulation as described. Isolated macrophages were cultured in DMEM with 10% FBS for 48 hours with daily medium changes. Cells were then serum-starved overnight in DMEM with low FBS (0.5%) and then exposed to saline, PST (100 nM), or LPS (100 ng/ml) for 4 hours. At the end of incubation, the cultures were subjected to RNA extraction.
RNA from tissues was extracted using a kit (RNeasy Plus, Qiagen, Valencia, Calif.). After DNase digestion, 200 ng of RNA was transcribed into cDNA in a 20-μl reaction using a High Capacity cDNA Archive kit and this cDNA was amplified. PCR (25-μl reactions) contained 5 μl of cDNA, 2×SYBR Green PCR Master Mix, and 400 nM of each primer. Differences in the threshold cycle number (ΔCt) between the target gene, the housekeeping gene Gapdh and the ribosomal protein gene 36B4 were used to calculate differences in expression. Primer sequences are provided below.
As shown in FIGS. 18A-18H, PST promotes macrophage inflammation and chemotaxis. Peritoneal macrophages were isolated from WT-NCD and KO-NCD after thioglycollate injection. After 4-hr exposure to saline, LPS (100 ng/ml) or PST (100 nM), RNAs were extracted and cDNAs were prepared for qPCR analyses of Chga (FIG. 18A, n=8), iNos (FIG. 18B, n=8), Tnfα (FIG. 18C, n=8), Mcp-1 (FIG. 18D, n=8), IL-6 (FIG. 18E, n=8), IL-12p40 (FIG. 18F, n=8) and iNos genes (FIG. 18G, n=8). (FIG. 18H) Effects of PST on chemotaxis of activated macrophages from NCD-fed C57BL/6J mice (n=5). “*” Denotes comparison between the indicated groups. “*”: P<0.05, “**”: p<0.01, “***”: p<0.001.
A general note: In qPCR the cycle at which signal appears reflects the starting amount.

For the next assay, the system named is WT-NCD mice. Put plainly: IP-ITT in WT-NCD mice. Format: in vivo. Conditions: chronic PST 5 μg/g BW for 15 days; WT mice on NCD. How it is done: For glucose tolerance tests (GTT), glucose (1 mg/g) was injected intraperitoneally (IP-GTT) (at time zero) or gavaged orally (O-GTT) after a 12-hours fast. Tail-vein glucose levels were measured at −30, 0, 15, 30, 60, 90, and 120 minutes. For insulin tolerance tests (ITT), insulin (0.4 mU/g) was injected intraperitoneally and blood glucose levels were measured at the indicated time points. Chronic PST (5 μg/g/day) and PSTv1 (10 μg/day) treatments were carried out for 15 days. For acute treatment, either peptides or saline were injected 30 minutes before glucose or insulin injection. Synergy Software Kaleidagraph Version 4.0 calculated the area under the curve (AUC) for each line curve.
Treatment with the PST variant PSTv1 improves, whereas PST worsens, glucose tolerance and insulin sensitivity in WT-DIO and WT-NCD mice. WT-DIO mice were treated with saline or PSTv1 (10 μg/g BW/day) for 15 days. Weight-matched DIO mice were fasted for 12 hrs and subjected to IP-GTT (2-way ANOVA: Treatment, p<0.0001; Time, p<0.0001; Interaction, p=0.17, n=6, as shown in FIG. 13A) and IP-ITT (2-way ANOVA: Treatment, p<0.0001; Time, p<0.0001; Interaction, p=0.62 n=9, as shown in FIG. 13C) and AUCs for glucose excursions were determined (as shown in FIGS. 13B and 13D). […]

A further assay deals with KO-DIO mice. Put plainly: Immunoblot of signaling in PST-treated KO-DIO mice. Format: in vivo. As to the method:
Tissues were homogenized in a buffer containing phosphatase and protease inhibitors. Homogenates were subjected to SDS-PAGE and immunoblotted. Primary antibodies for phosphorylated and total Akt, AMPK, FoxO1, and JNK were from Cell Signaling Technology (Beverly, Mass.). Actin and Srebp-1 antibodies were from Santa Cruz Biotechnology (CA).
Phosphorylation and activation of Akt, an important component of the insulin signaling pathway was analyzed by Western blot. […] Weight-matched saline-treated WT-DIO or KO-DIO and PST-treated KO-DIO mice were fasted for 12 hrs, injected with insulin (0.4 mU/g BW, IP) for 10 min and sacrificed for tissue collection. Tissues were homogenized, lysates were subjected to SDS-PAGE and immunoblotted for p-Akt in muscle (14A, n=4), WAT (14B, n=4) and liver (14C, n=4) and for p-AMPK in muscle (14D), WAT (14E) and liver (14F). “*” Denotes comparison between the indicated groups. “*”: P<0.05, “**”: p<0.01, “***”: p<0.001.
The insulin-stimulated phosphorylation of FoxO1, downstream of Akt (82 kDa pFoxO1 and 95 kDa pFoxO1), in KO-DIO mice was higher in WAT and the liver than corresponding insulin-treated WT-DIO tissues (FIGS. 16A and 16B). Weight-matched saline-treated WT-DIO or KO-DIO and PST-treated KO-DIO mice were fasted for 12 hrs, injected with insulin (0.4 mU/g BW, IP) for 10 min and sacrificed for tissue collection. Tissues were homogenized, lysates were subjected to SDS-PAGE and subsequently immunoblotted to detect phospho-p95-FoxO1 and phospho-p82-FoxO1 signals in WAT (16A, n=4) and phospho-p82-FoxO1 signals in liver (16B, n=4), phospho-p54-Jnk and phospho-p46-Jnk signals in WAT (16C, n=4) and liver (16D, n=4), and p125-Srebp-1 and p-68-Srebp-1 (mature) signals in liver (16E, n=4). “*” Denotes comparison between the indicated groups. “*”: P<0.05, “**”: p<0.01, “***”: p<0.001.
(Immunoblotting shows a protein as a band on a membrane.)

The mark [1] stands for this setting: PST 100 nM, 4 hr, Chga-KO macrophages.

Where no end group is shown, it is not given here.

As for “PEGKGEQEHSQQKEEEEEMAVVPQGLFRG-amide (PEGKGEQEHSQQKEEEEEMAVVPQGLFRG-NH2) [PST, Wild-type human pancreastatin, a chromogranin A derived peptide]”, in the assay on peritoneal macrophages (setting [1]), the “expression of IL-6, IL-12p40 and iNos genes” value is “had no effect”; the “expression of Tnfα and Mcp-1” value was “increased”. For the same substance, the “expression of Tnfα, Mcp-1, IL-6, IL-12p40 and iNos” value in the assay on peritoneal macrophages (macrophage cultures from WT and Chga-KO mice on NCD) is recorded as “increased”. For the same substance, the “insulin sensitivity (IP-ITT)” value in the assay with WT-NCD mice was “induced insulin resistance”. For the same substance, in the assay with KO-DIO mice (WAT), the “FoxO1 signaling in WAT” value is “modulated” and the “increased insulin-stimulated pFoxO1-p95 signals in WAT” value is given as “reversed”. In the assay with KO-DIO mice (liver), the “hepatic AMPK, FoxO1 or Jnk signaling” value is “did not alter”. For the same substance, in the assay with KO-DIO mice (liver, compared to untreated KO-DIO), the “Srebp-1c p68 to p125 ratio” value is recorded as “decreased”. Besides, in the assay with KO-DIO mice (muscle, WAT and liver), the AMPK signaling result is “did not change the overall pattern” and the “stimulation of Akt phosphorylation by insulin” value was “completely inhibited”.
